We go through four compounds from ChEMBL document CHEMBL1201862, “PubChem BioAssay data set” (2004).

Each structure is given as a SMILES string. The source made the active and inactive calls.

Test [1] has as its target Sphingosine 1-phosphate receptor 4 (Homo sapiens, UniProt O95977). Description: Late-stage fluorescence dose response cell-based assay to identify agonists of the Sphingosine 1-Phosphate Receptor 4 (S1P4): purchased compounds EC50. [Related pubchem assays (depositor defined):AID1509, AID1523, AID1563, AID1686, AID1701, AID1801]. Format: functional.
The target in the next test is T1, Coagulation factor XII (Homo sapiens, UniProt P00748).
T1 sequence (P00748 whole entry): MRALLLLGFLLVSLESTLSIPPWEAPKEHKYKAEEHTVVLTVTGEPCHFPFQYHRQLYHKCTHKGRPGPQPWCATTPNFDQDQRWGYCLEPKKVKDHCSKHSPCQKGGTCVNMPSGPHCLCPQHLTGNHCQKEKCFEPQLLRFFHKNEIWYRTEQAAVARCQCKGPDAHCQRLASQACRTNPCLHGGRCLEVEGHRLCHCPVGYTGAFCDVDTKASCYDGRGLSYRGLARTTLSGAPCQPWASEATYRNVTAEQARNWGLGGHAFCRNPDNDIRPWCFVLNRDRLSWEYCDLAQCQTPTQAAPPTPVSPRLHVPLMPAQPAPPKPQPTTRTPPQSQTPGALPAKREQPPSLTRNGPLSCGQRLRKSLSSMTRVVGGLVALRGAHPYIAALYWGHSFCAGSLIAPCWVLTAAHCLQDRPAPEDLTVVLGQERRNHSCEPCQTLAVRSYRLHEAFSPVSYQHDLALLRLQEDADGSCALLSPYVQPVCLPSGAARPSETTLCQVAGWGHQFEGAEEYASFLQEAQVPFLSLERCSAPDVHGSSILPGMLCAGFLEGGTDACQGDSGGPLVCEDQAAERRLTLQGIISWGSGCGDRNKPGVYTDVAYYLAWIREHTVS
The test is described as follows: activated coagulation factor XII inhibitor potency, concentration-effect curve, cell-free (AID 716). Format: functional.

Another test deals with T2, CAAX prenyl protease 2 (Saccharomyces cerevisiae S288c, UniProt Q03530).
T2 sequence (Q03530 whole entry): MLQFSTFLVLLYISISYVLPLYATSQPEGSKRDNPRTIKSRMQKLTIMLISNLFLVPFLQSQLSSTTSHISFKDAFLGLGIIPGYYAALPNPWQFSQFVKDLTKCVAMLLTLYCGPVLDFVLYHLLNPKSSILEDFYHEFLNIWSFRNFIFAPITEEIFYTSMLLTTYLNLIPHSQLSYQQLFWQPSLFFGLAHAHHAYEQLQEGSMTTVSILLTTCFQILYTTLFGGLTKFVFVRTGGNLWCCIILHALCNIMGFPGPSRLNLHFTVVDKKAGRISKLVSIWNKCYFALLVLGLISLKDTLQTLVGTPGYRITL
Format: biochemical.

A short description of test [2]: Trypanosoma cruzi growth suppression in host cells – NIH3T3 host cells, beta-gal luminescence, confirmation (AID 2044).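 Further: intracellular parasites grown in NIH/3T3 mouse fibroblasts as host cells; luminescent beta-galactosidase reporter signal from transgenic T. cruzi replicating inside host cells; inhibitors lower the luminescence signal.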 Format: functional, cell-based.
The nature of test [3]: NIH3T3 cell viability loss – ATP luminescence, mouse fibroblasts, counter-screen, dose response (AID 2010).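 Further: cells exposed to compound for about 90 hours before reading.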 It counts as functional, cell-based. In general terms: The purpose of a counterscreen is to sort out artefacts and off-target activity.
Another test addresses Trypsin (Sus scrofa, UniProt P00761). Description: trypsin protease activity blockade – biochemical, quenched peptide fluorescence, cherry-pick, selectivity assay for Rce1 protease inhibitor project, dose response (AID 488789).
The target of the next test is Tumor necrosis factor (Homo sapiens, UniProt P01375). Description: analog potency on TNFa NF-kB signaling – cell-based, revised, SAR follow-up (AID 2337). Format: functional.
The subject of test [4] is HEK293. Description: NOD2 signaling inhibitors in MDP-stimulated cells, cell-based, uHTS, luminescence (AID 2001). Format: functional. The conditions noted are these: Homo sapiens.
In test [5] the target is T3, Nucleotide-binding oligomerization domain-containing protein 2 (Homo sapiens, UniProt Q9HC29). Description: inhibition of NOD2-driven NF-kB reporter – cell-based, luminescence, uHTS, HEK293 (AID 1566). It counts as functional.
The target of test [6] is Nucleotide-binding oligomerization domain-containing protein 1 (Homo sapiens, UniProt Q9Y239). The test is described as follows: blockers of NOD1 pathway activity – revised, SAR follow-up (AID 2333). Format: functional.
Test [7] has as its system HEK293. Description: cells. It counts as functional, cell-based. The conditions noted are these: Homo sapiens.
Test [8] has as its system HEK293. Description: cells. The conditions noted are these: Homo sapiens.
Test [9] relates to HEK293. The test is described as follows: cells. It counts as functional, cell-based. The conditions noted are these: Homo sapiens. The source holds these as a separate data set.
For test [10], the system named is HEK293. The test is described as follows: cells. Format: functional, cell-based. As to conditions: Homo sapiens. The source holds these as a separate data set.
The target in test [11] is T3, Nucleotide-binding oligomerization domain-containing protein 2. The test is described as follows: PubChem AID 2334. It counts as functional.
Test [12] deals with HEK293. Description: inhibition of NOD1-driven NF-kB reporter – cell-based, luminescence, uHTS, primary screen (AID 1578). Format: functional. As to conditions: Homo sapiens.
Test [13] concerns the target T4, High affinity choline transporter 1 (Homo sapiens, UniProt Q9GZV3).
T4 sequence (Q9GZV3 whole entry): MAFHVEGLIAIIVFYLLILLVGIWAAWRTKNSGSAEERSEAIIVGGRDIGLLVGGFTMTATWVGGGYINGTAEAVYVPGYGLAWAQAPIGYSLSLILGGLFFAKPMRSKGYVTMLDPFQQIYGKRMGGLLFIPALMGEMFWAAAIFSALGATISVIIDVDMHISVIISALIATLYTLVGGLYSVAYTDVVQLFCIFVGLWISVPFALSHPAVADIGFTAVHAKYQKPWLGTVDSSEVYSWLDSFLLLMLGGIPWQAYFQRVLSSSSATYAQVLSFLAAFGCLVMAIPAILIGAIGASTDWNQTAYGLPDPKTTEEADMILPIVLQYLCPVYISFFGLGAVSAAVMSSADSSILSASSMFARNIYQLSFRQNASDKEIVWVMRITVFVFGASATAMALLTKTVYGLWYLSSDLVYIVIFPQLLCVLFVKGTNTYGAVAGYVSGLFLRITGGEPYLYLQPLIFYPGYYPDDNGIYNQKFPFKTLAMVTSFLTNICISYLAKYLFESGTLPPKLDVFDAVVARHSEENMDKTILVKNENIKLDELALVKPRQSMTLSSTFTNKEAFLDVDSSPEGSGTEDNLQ
The test is described as follows: human choline transporter blockers, potency – cell-based, 5-point CRC, membrane potential dye, dose response (AID 504840). Format: functional.

The target in the next test is Troponin, cardiac muscle (Homo sapiens, UniProt P19429+P45379+P63316). Description: Fluorescence-based biochemical high throughput dose response assay for activators of the calcium sensitivity of cardiac Regulated Thin Filaments (RTF). [Related pubchem assays (depositor defined):AID493008, AID493018, AID504382, AID504383]. It counts as protein-complex assay.
The target in test [14] is T4, High affinity choline transporter 1. Description: human choline transporter blockers, potency – cell-based, 10-point CRC, membrane potential dye, dose response (AID 588401).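 Further: membrane potential dye fluorescence of choline-evoked depolarization via CHT.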 Format: functional.
For test [15], the target named is T5, Short transient receptor potential channel 4 (Mus musculus, UniProt Q9QUQ5).
T5 sequence (Q9QUQ5 whole entry): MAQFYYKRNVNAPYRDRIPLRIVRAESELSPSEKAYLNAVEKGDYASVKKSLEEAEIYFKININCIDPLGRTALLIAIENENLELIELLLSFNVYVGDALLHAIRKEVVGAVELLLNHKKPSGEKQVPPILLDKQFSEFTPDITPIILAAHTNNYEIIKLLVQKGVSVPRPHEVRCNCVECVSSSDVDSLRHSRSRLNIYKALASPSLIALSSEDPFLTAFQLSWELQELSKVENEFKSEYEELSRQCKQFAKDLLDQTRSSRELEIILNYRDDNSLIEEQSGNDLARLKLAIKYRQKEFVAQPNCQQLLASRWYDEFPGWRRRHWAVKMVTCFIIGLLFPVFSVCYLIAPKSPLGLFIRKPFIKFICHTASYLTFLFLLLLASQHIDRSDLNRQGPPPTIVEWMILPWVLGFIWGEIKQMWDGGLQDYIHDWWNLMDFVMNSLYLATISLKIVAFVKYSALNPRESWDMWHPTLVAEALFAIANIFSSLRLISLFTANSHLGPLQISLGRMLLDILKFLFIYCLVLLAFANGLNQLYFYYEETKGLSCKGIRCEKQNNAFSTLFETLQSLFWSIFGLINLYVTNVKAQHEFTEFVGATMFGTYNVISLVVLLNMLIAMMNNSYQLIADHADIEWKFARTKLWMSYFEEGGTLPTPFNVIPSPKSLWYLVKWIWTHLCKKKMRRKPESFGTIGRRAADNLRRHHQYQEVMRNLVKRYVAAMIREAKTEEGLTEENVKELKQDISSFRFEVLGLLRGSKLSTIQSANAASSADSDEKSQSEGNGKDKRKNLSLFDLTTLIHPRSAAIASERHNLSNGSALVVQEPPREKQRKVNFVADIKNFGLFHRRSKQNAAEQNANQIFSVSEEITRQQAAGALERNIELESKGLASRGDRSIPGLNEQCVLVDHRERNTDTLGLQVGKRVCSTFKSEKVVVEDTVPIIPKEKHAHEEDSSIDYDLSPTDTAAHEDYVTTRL
Description: calcium entry via TRPC4 opening agents – cell-based, HEK293 TRPC4/mu-opioid, Fluo-4 calcium, dose response (AID 434937). Format: functional.

Usually EC50 stands for the concentration at which the effect is half-maximal. Usually IC50 stands for the concentration that inhibits the measured activity by half. Usually AC50 stands for the concentration at which the activity in the assay is half-maximal.

As to `Cc1nn(Cc2ccccc2)c(Cl)c1C(=O)OC(C)C(=O)Nc1nc(-c2ccccc2)cs1` (stereo not given), the EC50 in [1] is > 50 µM (inactive).

As for `COc1ccc(C)cc1NC(=O)CCC(=O)Nc1ccc2nc(N3CCN(C)CC3)cc(C)c2c1`, the IC50 on Coagulation factor XII was > 50 µM (inactive). Further, the values for the AC50 on CAAX prenyl protease 2 and at Trypsin were 16.4 µM (active) and 19.7 µM (active), respectively. Besides, the EC50 was 0.635 µM (active) in test [2] and 8.73 µM (active) in [3].

For the compound `Cc1cc(Cl)ccc1OCC(=O)Nc1ccccc1NS(=O)(=O)c1cccs1`, the IC50 is 12.3 µM (active) at Tumor necrosis factor; 15.8 µM (inactive) with HEK293 [4]; 4.55 µM (active) in test [6]; > 20 µM (inactive) with HEK293 [7]; > 20 µM (inactive) in the test with HEK293 [8]; > 20 µM (inactive) in the test on HEK293 [9]. For the same compound, the IC50 is > 20 µM (inactive) in the test with HEK293 [10] and 8.21 µM (active) in [11]. In addition, the EC50 in test [5] is 6.8 µM (active); in the test on HEK293 [12], 5.15 µM (active).

Consider `CC(=O)OCC[N+](C)(C)C` [ACETYLCHOLINE CHLORIDE], for which the values for the IC50 in [13] and in test [14] were 6.26 µM (active) and 0.566 µM (active), respectively. Moreover, the EC50 at Troponin, cardiac muscle is > 71.4 µM (inactive); in [15] it was 0.421 µM (active).
